Patent US6355799B1, “Substituted benzene compounds, process for their preparation, and herbicidal and defoliant compositions containing them” (ISK Americas Incorporated, priority 1997, dated 2002)

Assays:
Format in all cases: in vivo
[1] = system: redroot pigweed (Amaranthus retroflexus, AMARE); experiment: Pre-emerge test, greenhouse herbicide activity screening; conditions: pre-emerge, rated 14 days after application, 0 = no damage, 100 = complete death
Summary of the method: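 Sandy loam pots; pre-emerge: sown 1 d pre-spray, surface-watered after, then bottom-watered. Post-emerge: sown 8–21 d before, 2–3 leaf stage, + 0.25% v/v NIS, bottom-watered. Acetone, 187 l/ha track spray, 15–1000 g ai/ha. 0–100 injury score, day 14.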

[2] = system: barnyardgrass (Echinochloa crus-galli, ECHCG); experiment: as above; conditions: pre-emerge, rated 14 days after application, 0 = no damage, 100 = complete death
Summary of the method: (§1)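 Visual ratings on a 0-100 scale (0 no damage, 100 all plants dead) were taken at 14 days after treatment. Rates of 15-1000 g ai/ha in acetone, 187 l/ha, were sprayed onto soil one day after planting (pre-emerge) or onto 2-3 leaf plants with 0.25% v/v surfactant (post-emerge).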

[3] = system: green foxtail (Setaria viridis, SETVI); experiment: as above; conditions: pre-emerge, rated 14 days after application, 0 = no damage, 100 = complete death
Summary of the method: as §1

[4] = system: ivyleaf morningglory (Ipomoea hederacea, IPOHE); experiment: as above; conditions: pre-emerge, rated 14 days after application, 0 = no damage, 100 = complete death
Summary of the method: as §1

[5] = system: johnsongrass (Sorghum halepense, SORHA); experiment: as above; conditions: pre-emerge, rated 14 days after application, 0 = no damage, 100 = complete death
Summary of the method: as §1

[6] = system: lambsquarters (Chenopodium album, CHEAL); experiment: as above; conditions: pre-emerge, rated 14 days after application, 0 = no damage, 100 = complete death
Summary of the method: as §1

[7] = system: large crabgrass (Digitaria sanguinalis, DIGSA); experiment: as above; conditions: pre-emerge, rated 14 days after application, 0 = no damage, 100 = complete death
Summary of the method: as §1

[8] = system: sicklepod (Cassia obtusifolia, CASOB); experiment: as above; conditions: pre-emerge, rated 14 days after application, 0 = no damage, 100 = complete death
Summary of the method: as §1

[9] = system: velvetleaf (Abutilon theophrasti, ABUTH); experiment: as above; conditions: pre-emerge, rated 14 days after application, 0 = no damage, 100 = complete death
Summary of the method: as §1

[10] = system: field corn (Zea mays L., var. Dekalb 535, CORN); experiment: Pre-emerge test, crop safety; conditions: 63 g ai/ha; pre-emerge; rated 14 days after application; 0 = no damage, 100 = complete death
Summary of the method: (§2)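 Herbicidal damage is scored 0 (none) to 100 (complete plant death) two weeks after a simulated field spray. Rates span 15–1000 g ai/ha, delivered in acetone at 187 l/ha. For post-emergence treatments, plants have 2–3 leaves and the spray carries 0.25% v/v non-ionic surfactant.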

[11] = system: upland rice (Oryza sp., var. Tebonnet, RICE); experiment: Pre-emerge test, crop safety; conditions: pre-emerge, rated 14 days after application, 0 = no damage, 100 = complete death
Summary of the method: as §2

[12] = system: barnyardgrass (Echinochloa crus-galli, ECHCG); experiment: Post-emerge test, greenhouse herbicide activity screening; conditions: phytotoxicity rating 0-100 (0 no damage, 100 complete death), 14 days after application
Summary of the method: (§3)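 Compounds in acetone were track-sprayed at 15–1000 g ai/ha: pre-emergence onto soil sown the previous day, then top-watered to incorporate and later bottom-watered; post-emergence onto 2–3 leaf plants with 0.25% v/v surfactant, bottom-watered only. Ratings on a 0–100 phytotoxicity scale were taken at day 14.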

[13] = system: green foxtail (Setaria viridis, SETVI); experiment: as above; conditions: phytotoxicity rating 0-100 (0 no damage, 100 complete death), 14 days after application
Summary of the method: as §3

[14] = system: ivyleaf morningglory (Ipomoea hederacea, IPOHE); experiment: as above; conditions: phytotoxicity rating 0-100 (0 no damage, 100 complete death), 14 days after application
Summary of the method: as §3

[15] = system: johnsongrass (Sorghum halepense, SORHA); experiment: as above; conditions: phytotoxicity rating 0-100 (0 no damage, 100 complete death), 14 days after application
Summary of the method: as §3

[16] = system: lambsquarters (Chenopodium album, CHEAL); experiment: as above; conditions: phytotoxicity rating 0-100 (0 no damage, 100 complete death), 14 days after application
Summary of the method: as §3

[17] = system: large crabgrass (Digitaria sanguinalis, DIGSA); experiment: as above; conditions: phytotoxicity rating 0-100 (0 no damage, 100 complete death), 14 days after application
Summary of the method: as §3

[18] = system: redroot pigweed (Amaranthus retroflexus, AMARE); experiment: as above; conditions: phytotoxicity rating 0-100 (0 no damage, 100 complete death), 14 days after application
Summary of the method: as §3

[19] = system: sicklepod (Cassia obtusifolia, CASOB); experiment: as above; conditions: phytotoxicity rating 0-100 (0 no damage, 100 complete death), 14 days after application
Summary of the method: as §3

[20] = system: velvetleaf (Abutilon theophrasti, ABUTH); experiment: as above; conditions: phytotoxicity rating 0-100 (0 no damage, 100 complete death), 14 days after application
Summary of the method: as §3

[21] = system: field corn (Zea mays L., var. Dekalb 535, CORN); experiment: Post-emerge test, crop safety; conditions: phytotoxicity rating 0-100 (0 no damage, 100 complete death), 14 days after application
Summary of the method: as §1

[22] = system: upland rice (Oryza sp., var. Tebonnet, RICE); experiment: Post-emerge test, crop safety; conditions: phytotoxicity rating 0-100 (0 no damage, 100 complete death), 14 days after application
Summary of the method: as §1

C=C(C)C(=O)Nc1c(OC)c(Cl)cc(F)c1-n1c(=O)cc(C(F)(F)F)n(C)c1=O [2-5]
0: Post-emerge Herbicidal Activity ECHCG ([12]; 63 g ai/ha) | Post-emerge Herbicidal Activity ECHCG ([12]; 250 g ai/ha) | Post-emerge Herbicidal Activity SETVI ([13]; 63 g ai/ha) | Post-emerge Herbicidal Activity SETVI ([13]; 250 g ai/ha) | Post-emerge Herbicidal Activity SORHA ([15]; 63 g ai/ha) | Post-emerge Herbicidal Activity DIGSA ([17]; 63 g ai/ha) | Post-emerge Herbicidal Activity DIGSA ([17]; 250 g ai/ha)
30: Post-emerge Herbicidal Activity SORHA ([15]; 250 g ai/ha) | Post-emerge Herbicidal Activity RICE (crop damage) ([22]; 63 g ai/ha)
100: Pre-emerge Herbicidal Activity AMARE (phytotoxicity rating, scale 0-100) ([1]; 250 g ai/ha) | Pre-emerge Herbicidal Activity SETVI (phytotoxicity rating, scale 0-100) ([3]; 63 g ai/ha) | Pre-emerge Herbicidal Activity SETVI (phytotoxicity rating, scale 0-100) ([3]; 250 g ai/ha) | Pre-emerge Herbicidal Activity IPOHE (phytotoxicity rating, scale 0-100) ([4]; 250 g ai/ha) | Pre-emerge Herbicidal Activity CHEAL (phytotoxicity rating, scale 0-100) ([6]; 63 g ai/ha) | Pre-emerge Herbicidal Activity CHEAL (phytotoxicity rating, scale 0-100) ([6]; 250 g ai/ha) | Pre-emerge Herbicidal Activity CASOB (phytotoxicity rating, scale 0-100) ([8]; 250 g ai/ha) | Pre-emerge Herbicidal Activity ABUTH (phytotoxicity rating, scale 0-100) ([9]; 63 g ai/ha) | Pre-emerge Herbicidal Activity ABUTH (phytotoxicity rating, scale 0-100) ([9]; 250 g ai/ha) | Post-emerge Herbicidal Activity ABUTH ([20]; 250 g ai/ha)
40: Pre-emerge Herbicidal Activity CASOB (phytotoxicity rating, scale 0-100) ([8]; 63 g ai/ha) | Post-emerge Herbicidal Activity CHEAL ([16]; 63 g ai/ha) | Post-emerge Herbicidal Activity AMARE ([18]; 250 g ai/ha) | Post-emerge Herbicidal Activity RICE (crop damage) ([22]; 250 g ai/ha)
10: Pre-emerge Herbicidal Activity ECHCG (phytotoxicity rating, scale 0-100) ([2]; 63 g ai/ha) | Pre-emerge crop damage CORN (phytotoxicity rating, scale 0-100) [10] | Post-emerge Herbicidal Activity CASOB ([19]; 63 g ai/ha) | Post-emerge Herbicidal Activity CORN (crop damage) ([21]; 250 g ai/ha)
60: Pre-emerge Herbicidal Activity SORHA (phytotoxicity rating, scale 0-100) ([5]; 63 g ai/ha)
50: Pre-emerge Herbicidal Activity DIGSA (phytotoxicity rating, scale 0-100) ([7]; 63 g ai/ha) | Post-emerge Herbicidal Activity IPOHE ([14]; 63 g ai/ha) | Post-emerge Herbicidal Activity CASOB ([19]; 250 g ai/ha)
70: Pre-emerge crop damage RICE (phytotoxicity rating, scale 0-100) ([11]; 63 g ai/ha) | Post-emerge Herbicidal Activity CHEAL ([16]; 250 g ai/ha)
20: Post-emerge Herbicidal Activity AMARE ([18]; 63 g ai/ha)
90: Pre-emerge Herbicidal Activity AMARE (phytotoxicity rating, scale 0-100) ([1]; 63 g ai/ha) | Pre-emerge Herbicidal Activity ECHCG (phytotoxicity rating, scale 0-100) ([2]; 250 g ai/ha) | Pre-emerge Herbicidal Activity IPOHE (phytotoxicity rating, scale 0-100) ([4]; 63 g ai/ha) | Pre-emerge Herbicidal Activity SORHA (phytotoxicity rating, scale 0-100) ([5]; 250 g ai/ha) | Post-emerge Herbicidal Activity IPOHE ([14]; 250 g ai/ha) | Post-emerge Herbicidal Activity ABUTH ([20]; 63 g ai/ha)
80: Pre-emerge crop damage RICE (phytotoxicity rating, scale 0-100) ([11]; 250 g ai/ha)
95: Pre-emerge Herbicidal Activity DIGSA (phytotoxicity rating, scale 0-100) ([7]; 250 g ai/ha)
5: Post-emerge Herbicidal Activity CORN (crop damage) ([21]; 63 g ai/ha)
